System: subjects with moderate-to-severe plaque psoriasis
Experiment: IGA score, Example 1
Format: in vivo, human
Description: The Investigator's Global Assessment (IGA) documents the investigator's assessment of the participant's psoriasis at a given time point. Overall lesions are graded for induration, erythema, and scaling. The participant's psoriasis is assessed as cleared (0), minimal (1), mild (2), moderate (3), or severe (4).
This was a randomized, double-blind, placebo-controlled, dose-ranging, parallel group, multicenter, interventional study in subjects with moderate-to-severe plaque psoriasis. A target of 240 subjects were enrolled in this study with 40 subjects planned per intervention group.
Clinician-reported outcomes including Psoriasis Area and Severity Index (PASI), Body Surface Area (BSA), Investigator's Global Assessment (IGA), Nail Psoriasis Area and Severity Index (NAPSI), Fingernail Physician's Global Assessment (f-PGA), Static Physician's Global Assessment of Genitalia (s-PGA-G), Physician's Global Assessment of Hands and/or Feet (hf-PGA), and Scalp Specific Investigator Global Assessment (ss-IGA) were obtained at Week 0, 8, and 16. PASI and IGA were also obtained at Weeks 1, 2, 4, and 12, and at Week 20, four weeks after the administration of the tablets has stopped.

[1] = 100 mg BID, Week 16, trough plasma conc Q2 to <Q3
[2] = 100 mg BID, Week 16, trough plasma conc ≥Q3
[3] = 100 mg QD, Week 16, peak plasma conc. <Q1, N=2
[4] = 100 mg QD, Week 16, peak plasma conc. Q1 to <Q2, N=2
[5] = 100 mg QD, Week 16, peak plasma conc. Q2 to <Q3, N=2
[6] = 100 mg QD, Week 16, peak plasma conc. ≥Q3, N=2
[7] = 100 mg QD, Week 16, trough plasma conc <Q1
[8] = 100 mg QD, Week 16, trough plasma conc Q1 to <Q2
[9] = 100 mg QD, Week 16, trough plasma conc Q2 to <Q3
[10] = 100 mg QD, Week 16, trough plasma conc ≥Q3
[11] = Combined doses, Week 16, peak plasma conc. <Q1, N=10
[12] = Combined doses, Week 16, peak plasma conc. Q1 to <Q2, N=11
[13] = Combined doses, Week 16, peak plasma conc. Q2 to <Q3, N=10
[14] = Combined doses, Week 16, peak plasma conc. ≥Q3, N=11
[15] = Combined doses, Week 16, trough plasma conc <Q1
[16] = Combined doses, Week 16, trough plasma conc Q1 to <Q2
[17] = Combined doses, Week 16, trough plasma conc Q2 to <Q3
[18] = Combined doses, Week 16, trough plasma conc ≥Q3
[19] = Week 16, 25 mg BID, intermediate plasma concentration quartile <Q1, N=1
[20] = Week 16, 25 mg BID, intermediate plasma concentration quartile Q1 to <Q2, N=1
[21] = Week 16, 25 mg BID, intermediate plasma concentration quartile Q2 to <Q3, N=1
[22] = Week 16, 25 mg BID, intermediate plasma concentration quartile ≥Q3, N=1
[23] = Week 16, 25 mg QD, intermediate plasma concentration quartile Q1 to <Q2, N=1
[24] = Week 16, 25 mg QD, intermediate plasma concentration quartile Q2 to <Q3, N=1
[25] = Week 16, 25 mg QD, intermediate plasma concentration quartile ≥Q3, N=1
[26] = Week 16, 50 mg QD, intermediate plasma concentration quartile <Q1, N=1
[27] = Week 16, 50 mg QD, intermediate plasma concentration quartile Q1 to <Q2, N=1
[28] = Week 16, 50 mg QD, intermediate plasma concentration quartile Q2 to <Q3, N=1
[29] = Week 16, 50 mg QD, intermediate plasma concentration quartile ≥Q3, N=2
[30] = Week 16, 100 mg BID, intermediate plasma concentration quartile <Q1, N=1
[31] = Week 16, 100 mg BID, intermediate plasma concentration quartile Q1 to <Q2, N=1
[32] = Week 16, 100 mg BID, intermediate plasma concentration quartile Q2 to <Q3, N=1
[33] = Week 16, 100 mg BID, intermediate plasma concentration quartile ≥Q3, N=2
[34] = Week 16, 100 mg QD, intermediate plasma concentration quartile <Q1, N=1
[35] = Week 16, 100 mg QD, intermediate plasma concentration quartile Q1 to <Q2, N=1
[36] = Week 16, 100 mg QD, intermediate plasma concentration quartile Q2 to <Q3, N=1
[37] = Week 16, 100 mg QD, intermediate plasma concentration quartile ≥Q3, N=1
[38] = Week 16, Combined regimens, intermediate plasma concentration quartile <Q1, N=5
[39] = Week 16, Combined regimens, intermediate plasma concentration quartile Q1 to <Q2, N=5
[40] = Week 16, Combined regimens, intermediate plasma concentration quartile Q2 to <Q3, N=5
[41] = Week 16, Combined regimens, intermediate plasma concentration quartile ≥Q3, N=6

Compound: CC(=O)NCCCC[C@@H]1NC(=O)[C@H](Cc2c[nH]c3c(C)cccc23)NC(=O)[C@H]([C@@H](C)O)NC(=O)[C@H](CC(N)=O)NC(=O)[C@@H](NC(C)=O)C(C)(C)SSC(C)(C)[C@@H](C(=O)N[C@@H](Cc2ccc(OCCN)cc2)C(=O)N[C@@H](Cc2ccc3ccccc3c2)C(=O)NC2(C(=O)N[C@@H](CCC(=O)O)C(=O)N[C@@H](CC(N)=O)C(=O)N[C@@H](Cc3cccnc3)C(=O)N(C)CC(N)=O)CCOCC2)NC1=O [IL-23 receptor antagonist peptide, Ac-[Pen]*-N-T-[W(7-Me)]-[Lys(Ac)]-[Pen]*-Phe[4-(2-aminoethoxy)]-[2-Nal]-[THP]-E-N-[3-Pal]-Sarc-NH2 (*[Pen]-[Pen]* formdisulfidebond)]
- IGA Score = 0 or 1, subjects (100 mg BID, Week 16, trough plasma conc Q1 to <Q2): 4 (80.0%)
- IGA Score = 0, subjects [1]: 2 (40.0%)
- IGA Score = 0 or 1, subjects [1]: 3 (60.0%)
- IGA Score = 0, subjects [2]: 3 (60.0%)
- IGA Score = 0 or 1, subjects [2]: 4 (80.0%)
- IGA 0 or 1 treatment difference vs placebo (100 mg QD, Week 16): 51.2% (34.0%,
- IGA 0 treatment difference vs placebo (100 mg QD, Week 16): 27.9% (14.6%,
- Subjects achieving IGA Score = 0 (100 mg QD, Week 16): 12 (27.9%)
- Subjects achieving IGA Score = 0 or 1 (100 mg QD, Week 16): 27 (62.8%)
- IGA score 0, % (100 mg QD, Week 16, N=43): 27.9%
- IGA score 0/1, % (100 mg QD, Week 16, N=43): 62.8%
- IGA Score = 0, % subjects [3]: (50.0%)
- IGA Score = 0, n subjects [3]: 1
- IGA Score = 0 or 1, % subjects [3]: (50.0%)
- IGA Score = 0 or 1, n subjects [3]: 1
- IGA Score = 0, % subjects [4]: (50.0%)
- IGA Score = 0, n subjects [4]: 1
- IGA Score = 0 or 1, % subjects [4]: (100.0%)
- IGA Score = 0 or 1, n subjects [4]: 2
- IGA Score = 0, % subjects [5]: (50.0%)
- IGA Score = 0, n subjects [5]: 1
- IGA Score = 0 or 1, % subjects [5]: (50.0%)
- IGA Score = 0 or 1, n subjects [5]: 1
- IGA Score = 0, n subjects [6]: 0
- IGA Score = 0 or 1, % subjects [6]: (50.0%)
- IGA Score = 0 or 1, n subjects [6]: 1
- IGA Score = 0, subjects [7]: 3 (60.0%)
- IGA Score = 0 or 1, subjects [7]: 3 (60.0%)
- IGA Score = 0, subjects [8]: 0
- IGA Score = 0 or 1, subjects [8]: 3 (60.0%)
- IGA Score = 0, subjects [9]: 1 (20.0%)
- IGA Score = 0 or 1, subjects [9]: 3 (60.0%)
- IGA Score = 0, subjects [10]: 1 (20.0%)
- IGA Score = 0 or 1, subjects [10]: 3 (60.0%)
- IGA Score = 0, % subjects [11]: (10.0%)
- IGA Score = 0, n subjects [11]: 1
- IGA Score = 0 or 1, % subjects [11]: (30.0%)
- IGA Score = 0 or 1, n subjects [11]: 3
- IGA Score = 0, % subjects [12]: (36.4%)
- IGA Score = 0, n subjects [12]: 4
- IGA Score = 0 or 1, % subjects [12]: (72.7%)
- IGA Score = 0 or 1, n subjects [12]: 8
- IGA Score = 0, % subjects [13]: (30.0%)
- IGA Score = 0, n subjects [13]: 3
- IGA Score = 0 or 1, % subjects [13]: (80.0%)
- IGA Score = 0 or 1, n subjects [13]: 8
- IGA Score = 0, % subjects [14]: (45.5%)
- IGA Score = 0, n subjects [14]: 5
- IGA Score = 0 or 1, % subjects [14]: (63.6%)
- IGA Score = 0 or 1, n subjects [14]: 7
- IGA Score = 0, subjects [15]: 10 (38.5%)
- IGA Score = 0 or 1, subjects [15]: 14 (53.8%)
- IGA Score = 0, subjects [16]: 5 (19.2%)
- IGA Score = 0 or 1, subjects [16]: 12 (46.2%)
- IGA Score = 0, subjects [17]: 5 (19.2%)
- IGA Score = 0 or 1, subjects [17]: 15 (57.7%)
- IGA Score = 0, subjects [18]: 10 (37.0%)
- IGA Score = 0 or 1, subjects [18]: 21 (77.8%)
- IGA Score = 0, subjects n (%) [19]: 0
- IGA Score = 0 or 1, subjects n (%) [19]: 0
- IGA Score = 0, subjects n (%) [20]: 0
- IGA Score = 0 or 1, subjects n (%) [20]: 1 (100.0%)
- IGA Score = 0, subjects n (%) [21]: 0
- IGA Score = 0 or 1, subjects n (%) [21]: 0
- IGA Score = 0, subjects n (%) [22]: 0
- IGA Score = 0 or 1, subjects n (%) [22]: 1 (100.0%)
- IGA Score = 0, subjects n (%) [23]: 0
- IGA Score = 0 or 1, subjects n (%) [23]: 0
- IGA Score = 0, subjects n (%) [24]: 1 (100.0%)
- IGA Score = 0 or 1, subjects n (%) [24]: 1 (100.0%)
- IGA Score = 0, subjects n (%) [25]: 0
- IGA Score = 0 or 1, subjects n (%) [25]: 0
- IGA Score = 0, subjects n (%) [26]: 0
- IGA Score = 0 or 1, subjects n (%) [26]: 0
- IGA Score = 0, subjects n (%) [27]: 1 (100.0%)
- IGA Score = 0 or 1, subjects n (%) [27]: 1 (100.0%)
- IGA Score = 0, subjects n (%) [28]: 1 (100.0%)
- IGA Score = 0 or 1, subjects n (%) [28]: 1 (100.0%)
- IGA Score = 0, subjects n (%) [29]: 0
- IGA Score = 0 or 1, subjects n (%) [29]: 1 (50.0%)
- IGA Score = 0, subjects n (%) [30]: 1 (100.0%)
- IGA Score = 0 or 1, subjects n (%) [30]: 1 (100.0%)
- IGA Score = 0, subjects n (%) [31]: 1 (100.0%)
- IGA Score = 0 or 1, subjects n (%) [31]: 1 (100.0%)
- IGA Score = 0, subjects n (%) [32]: 0
- IGA Score = 0 or 1, subjects n (%) [32]: 0
- IGA Score = 0, subjects n (%) [33]: 2 (100.0%)
- IGA Score = 0 or 1, subjects n (%) [33]: 2 (100.0%)
- IGA Score = 0, subjects n (%) [34]: 1 (100.0%)
- IGA Score = 0 or 1, subjects n (%) [34]: 1 (100.0%)
- IGA Score = 0, subjects n (%) [35]: 1 (100.0%)
- IGA Score = 0 or 1, subjects n (%) [35]: 1 (100.0%)
- IGA Score = 0, subjects n (%) [36]: 0
- IGA Score = 0 or 1, subjects n (%) [36]: 1 (100.0%)
- IGA Score = 0, subjects n (%) [37]: 0
- IGA Score = 0 or 1, subjects n (%) [37]: 1 (100.0%)
- IGA Score = 0, subjects n (%) [38]: 3 (60.0%)
- IGA Score = 0 or 1, subjects n (%) [38]: 3 (60.0%)
- IGA Score = 0, subjects n (%) [39]: 2 (40.0%)
- IGA Score = 0 or 1, subjects n (%) [39]: 3 (60.0%)
- IGA Score = 0, subjects n (%) [40]: 1 (20.0%)
- IGA Score = 0 or 1, subjects n (%) [40]: 3 (60.0%)
- IGA Score = 0, subjects n (%) [41]: 3 (50.0%)
- IGA Score = 0 or 1, subjects n (%) [41]: 5 (83.3%)
